Measured values as given in patent US5103014A, “Certain 3,3'-[[[(2-phenyl-4-thiazolyl)methoxy]phenyl]methylene]dithiobis-propano ic acid derivatives” (American Home Products Corporation, priority 1990, dated 1992).
Read-outs that look alike come from different tables or passages of the source.

Key:
[1] = tested on: LTD4 induced bronchoconstriction; assay: In vivo inhibition of LTD4 induced bronchospasm in guinea pigs (exogenously administered leukotrienes); parameters: species or system guinea pig; conditions: Cavia porcellus, 10 minutes before induction of bronchospasm (LTD4)
[2] = tested on: acute inflammatory response (carrageenan paw edema); assay: Rat carrageenan paw edema assay; assay type: in vivo; conditions: po; for inhibition in vivo at 50 mg/kg: 50 mg/kg peroral, 1 hour prior to carrageenan, edema at 3 hours
Protocol: The compounds of the invention are tested in the rat carrageenan paw edema assay to determine their ability to inhibit the acute inflammatory response. 140-180 gm male Sprague-Dawley rats, in groups of 6 animals, are injected subcutaneously in the right paw with 0.1 ml of 1% carrageenan at zero time. Mercury plethysmographic readings (ml) of the paw are made at zero time and 3 hours later. Test compounds are suspended or dissolved in 0.5% methylcellulose and given perorally 1 hour prior to carrageenan administration. The increase in paw volume (edema in ml.) produced by the carrageenan is measured. […] Unpaired Student's t-test is used to determine statistical significance.

[3] = tested on: 5,12-diHETE synthesis by rat glycogen-elicited polymorphonuclear leukocytes; assay: Inhibition of 5,12-diHETE synthesis by rat glycogen-elicited polymorphonuclear leukocytes; assay type: cell-based; conditions: Leukocyte, rat PMN
Protocol: This is especially true with respect to 5,12-diHETE, which is also denoted as LTB4 [see Ford-Hitchinson, J. Roy. Soc. Med., 74, 831 (1981)]. The assay of this Example measures the ability of the compounds of the invention to inhibit the synthesis of 5,12-diHETE by rat glycogen-elicited polymorphonuclear leukocytes.
(§1) Peritoneal PMN are obtained from female Wistar rats (150-250 g) that received an i.p. injection of 6% glycogen (10 ml). After 24 hours, rats are killed by CO2 asphyxiation and peritoneal cells are harvested by peritoneal lavage using Ca^++ and Mg^++ free Hanks' balanced salt solution (HBSS). The peritoneal exudate is centrifuged at 400 g for 10 minutes. After centrifugation, the lavaged fluid is removed and the cell pellet is resuspended in HBSS containing Ca^++ and Mg^++ and 10 mM L-cysteine at a concentration of 2×10^7 cells/ml. To 1 ml portions of cell suspension, test drugs or vehicle are added and incubated at 37° C. for 10 minutes. Following this preincubation, the calcium ionophore (10 μM), A23187, is added together with 0.5 μCi [^14 C] arachidonic acid and further incubated for 10 minutes. The reaction is stopped by the addition of ice cold water (3 ml) and acidification to pH 3.5. Lipoxygenase products are then extracted twice into diethyl ether. The pooled ether extracts are evaporated to dryness under nitrogen and the residue is redissolved in a small volume of methanol and spotted on aluminum backed pre-coated thin layer chromatographic plates. The samples are then co-chromatographed with authentic reference 5,12-diHETE in the solvent system-hexane:ether:acetic acid (50:50:3). After chromatography, the areas associated with 5,12-diHETE standard are identified by autoradiography, cut out and quantitated by liquid scintillation.
Results are expressed as the 50% Inhibitory concentration, or as percent inhibition at a given.

[4] = tested on: TxB2 synthesis (cyclooxygenase); assay: Inhibition of synthesis of cyclooxygenase oxidation product TxB2 (rat polymorphonuclear leukocytes); assay type: cell-based; conditions: Leukocyte, rat PMN
Protocol: as §1
The procedure of Example 17 is also employed for the determination of the ability of the compounds of the invention to inhibit the synthesis of the arachidonic acid cyclooxygenase oxidation product TxB2.
In this assay, the procedure of Example 17 is carried out as described. However, in order to determine cyclooxygenase activity, the samples are cochromatographed with authentic reference TxB2 in the solvent system ethyl acetate:formic acid (80:1) and the upper phase of ethyl acetate:isoctane:acetic acid:water (110:50:20:100). After chromatography, the areas associated with TxB2 standard are identified by autoradiography, cut out and quantitated by liquid scintillation techniques.
The results are calculated as in Example 12 and presented below: […]

[5] = target: T1, LTD4 (contraction of isolated guinea pig trachea) (Cavia porcellus, UniProt Q2NNR5); assay: Isolated guinea pig trachea assay, LTD4 antagonist activity; assay type: cell-based; conditions: read-out: pKB ± S.E. (converted)
T1 construct: from tissue; host or cells: isolated tracheal rings of male Hartley guinea pigs
T1 sequence (Q2NNR5 1-340): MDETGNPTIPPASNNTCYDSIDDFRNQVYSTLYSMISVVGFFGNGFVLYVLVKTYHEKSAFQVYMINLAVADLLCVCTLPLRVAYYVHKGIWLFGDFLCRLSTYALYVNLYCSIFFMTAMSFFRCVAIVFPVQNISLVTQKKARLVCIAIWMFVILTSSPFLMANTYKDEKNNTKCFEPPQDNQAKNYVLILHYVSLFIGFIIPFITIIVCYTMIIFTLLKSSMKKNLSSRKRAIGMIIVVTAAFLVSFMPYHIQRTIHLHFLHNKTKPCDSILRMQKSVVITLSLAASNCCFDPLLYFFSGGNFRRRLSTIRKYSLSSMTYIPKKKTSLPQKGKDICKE
Protocol: The compounds of the invention are tested in the isolated guinea pig trachea assay to assess their LTD4 antagonist activity. Male Hartley guinea pigs (350-400 g) are euthanized by a blow to the head, the neck is opened and the trachea removed. The trachea is maintained in aerated physiological salt solution, cleared of connective tissue and fat and cut into rings approximately 2 mm in width (usually containing two cartilaginous segments per ring). Two pieces of silk suture are then passed through the lumen of the tracheal ring and are tied around the cartilage, one on each side of the trachealis muscle. The tracheal ring is suspended between a glass hook and a force displacement transducer in a 10 ml organ bath for measurement of isometric tension. Tissues are maintained at 37° C. in aerated (95% O2 /5% CO2) physiological salt solution of the following composition: […] The tracheal rings are maintained at 2 g resting tension and equilibrated for 45 minutes (with frequent washing and readjustment of resting tension). The tracheal rings are first contracted by the addition of carbachol (3×10^-6 M), to determine tissue responsiveness and establish a reference contraction. On attainment of a stable level of contraction (approximately 30 minutes), the tissues are washed several times until baseline tension has been restored and then re-equilibrated for 30 minutes. The tissues are then incubated for 45 minutes with a test antagonist (either 1×10^-6 M or 1×10^-5 M) or 10 μl of an appropriate solvent control (control, non-treated). One tissue in each group serves as the control. Twenty minutes prior to the construction of the LTD4 cumulative concentration-response curve, L-[…]×10^-2 M final bath concentration) is added to inhibit bioconversion of LTD4 to LTE4. Only one LTD4 concentration-response curve is constructed in each tissue. All responses to LTD4 are calculated as a percentage of the reference contraction to carbachol. LTD4 antagonist activity is determined by comparison of the concentration response curves of LTD4 in the presence and absence of antagonist. Assessment of the relative rightward shift of the antagonist treated curve relative to the solvent (control) treated tissue is calculated as a concentration ratio (Eq. A) and used in subsequent calculations to derive an antagonist pKB value (Eqs B&C). In the event that the maximum response to LTD4 is depressed, the EC50 for that particular curve is determined, an "apparent" pKB reported, and the compound reported as "not-competitive."

[6] = A23187 10 μM, read-out: 50% Inhibitory Concentration (IC50)
[7] = antagonist concentration 1 × 10^-5 M
[8] = antagonist concentration 1 × 10^-6 M

| SMILES | inhibition in vivo at 25 mg/kg ([1]; intraduodenal, intraduodenally) [%] | inhibition in vivo at 50 mg/kg [2] [%] | other results |
| --- | --- | --- | --- |
| COc1ccc(-c2nc(COc3cccc(NS(=O)(=O)C(F)(F)F)c3)c(C)o2)cc1 [Example 1, 1,1,1-Trifluoro-N-[3-[[2-(4-methoxyphenyl)-5-methyl-4-oxazolyl]methoxy]phenyl]methanesulfonamide] | 24 | 34 |  |
| Cc1oc(-c2ccccc2)nc1COc1cccc(NS(=O)(=O)C(F)(F)F)c1 [Example 2, 1,1,1-Trifluoro-N-[3-[(5-methyl-2-phenyl-4-oxazolyl)methoxy]phenyl]methanesulfonamide] | 56 | 18 |  |
| O=S(=O)(Nc1ccccc1OCc1csc(-c2ccccc2)n1)C(F)(F)F [Example 4, 1,1,1-Trifluoro-N-[2-[(2-phenyl-4-thiazolyl)methoxy]phenyl]methanesulfonamide] | 10 |  |  |
| c1ccc(-c2nc(COc3cccc(Cc4nnn[nH]4)c3)cs2)cc1 [Example 5, 5-[[3-(2-Phenyl-4-thiazolylmethoxy)phenyl]methyl]-1H-tetrazole] | 69 |  |  |
| CCN(CC)C(=O)N(C)CC(O)c1cccc(OCc2csc(-c3ccccc3)n2)c1 (stereo not shown) [Example 6, N,N-Diethyl-N'-[2-hydroxy-2-[3-(2-phenyl-4-thiazolylmethoxy)phenyl]ethyl]-N-methylurea] | 47 | 57 |  |
| O=S(=O)(Nc1cccc(OCc2cccc(-c3ccccc3)n2)c1)C(F)(F)F [Example 7, 1,1,1-Trifluoro-N-[3-[(2-phenyl-6-pyridinyl)methoxy]phenyl]methanesulfonamide] | 68 |  |  |
| Cc1ccc(S(=O)(=O)NC(=O)c2cccc(OCc3csc(-c4ccccc4)n3)c2)cc1 [Example 8, N-[(4-Methylphenyl)sulfonyl]-3-[(2-phenyl-4-thiazolyl)methoxy]benzamide] | 62 | 51 | inhibition at 10 µM ([3]; 10 μM): 55%; inhibition at 10 µM ([4]; 10 μM): 44% |
| O=S(=O)(Nc1cccc(OCc2csc(-c3ccc(Cl)cc3)n2)c1)C(F)(F)F [Example 9A, 1,1,1-Trifluoro-N-[3-[[2-(4-chlorophenyl)-4-thiazolyl]methoxy]phenyl]methanesulfonamide] | 54 | 60 | IC50 [3, 6]: 5200 nM; IC50 [4, 6]: 7100 nM |
| O=S(=O)(Nc1cccc(OCc2csc(-c3ccccc3F)n2)c1)C(F)(F)F [Example 9C, 1,1,1-Trifluoro-N-[3-[[2-(2-fluorophenyl)-4-thiazolyl]methoxy]phenyl]methanesulfonamide] | 73 | 53 | inhibition in vivo at 10 mg/kg ([1]; po, 10 mg/kg, intragastrically): 89% |
| O=S(=O)(Nc1cccc(OCc2csc(-c3c(F)cccc3F)n2)c1)C(F)(F)F [Example 9D, 1,1,1-Trifluoro-N-[3-[[2-(2,6-difluorophenyl)-4-thiazolyl]methoxy]phenyl]methanesulfonamide] | 72 | 37 |  |
| O=S(=O)(Nc1cccc(OCc2csc(-c3ccc(C(F)(F)F)cc3)n2)c1)C(F)(F)F [Example 9E, 1,1,1-Trifluoro-N-[3-[[2-(4-trifluoromethylphenyl)-4-thiazolyl]methoxy]phenyl]-methanesulfonamide] |  | 66 |  |
| O=S(=O)(Nc1cccc(OCc2csc(-c3cccc(C(F)(F)F)c3)n2)c1)C(F)(F)F [Example 9F, 1,1,1-Trifluoro-N-[3-[[2-(3-trifluoromethylphenyl)-4-thiazolyl]methoxy]phenyl]methanesulfonamide] | 50 | 23 |  |
| O=S(=O)(Nc1cccc(OCc2csc(Cc3ccccc3)n2)c1)C(F)(F)F [Example 9I, 1,1,1-Trifluoro-N-[3-[[2-(benzyl)-4-thiazolyl]methoxy]phenyl]methanesulfonamide] | 94 | 22 | inhibition in vivo at 25 mg/kg ([1]; po, intragastrically): 47% |
| COC(=O)CCSC(SCCC(=O)OC)c1cccc(OCc2csc(-c3ccccc3)n2)c1 [Example 12] |  |  | Kb [5, 7]: 724 nM |
| COC(=O)CCSC(SCCC(=O)N(C)C)c1cccc(OCc2csc(-c3ccccc3)n2)c1 (stereo not shown) [Example 13, 3-[[[[3-(Dimethylamino)-3-oxopropyl]thio][[(2-phenyl-4-thiazolyl)methoxy]phenyl]methyl]thio]propanoic acid methyl ester] |  |  | Kb [5, 8]: 44.7 nM |
| CN(C)C(=O)CCSC(SCCC(=O)N(C)C)c1cccc(OCc2csc(-c3ccccc3)n2)c1 [Example 14, 3,3'-[[[3-[(2-Phenyl-4-thiazolyl)methoxy]phenyl]methylene]dithio]bis[N,N-dimethylpropanamide]] |  |  | Kb [5, 8]: 324 nM |
| O=C(O)CCSC(SCCC(=O)O)c1cccc(OCc2csc(-c3ccccc3)n2)c1 [Example 15, 3,3'-[[3-[(2-Phenyl-4-thiazolyl)methoxy]phenyl]methylene]dithiobis[propanoic acid]] |  |  | Kb [5, 7]: 912 nM |
| CN(C)C(=O)CCSC(SCCC(=O)O)c1cccc(OCc2csc(-c3ccccc3)n2)c1 (stereo not shown) [Example 16, 3-[[[[3-(Dimethylamino)-3-oxopropyl]thio][3-[(2-phenyl-4-thiazolyl)methoxy]phenyl]methyl]thio]propanoic acid] |  |  | Kb [5, 8]: 72.4 nM |
| COc1ccc2c(c1)c(CC(=O)O)c(C)n2C(=O)c1ccc(Cl)cc1 [Indomethacin, reference compound] |  |  | ED50 ([2]; 3 h, read-out: Oral ED50 (95% C.L.)): 3.7 mg/kg |
